What was measured:
[1] = Displacement of [Phe13, [125I]Tyr19]-MCH from human MCHR1 receptor E4Q/A5T mutant expressed in HEK 293 cell membranes by scintillation counter; conditions: hek293
[2] = test system: Rattus norvegicus; assay: Antiobesity activity in obese rat assessed as reduction in body weight at 30 mg/kg, po measured on day 29; type: functional; design: scale not given: the % may be the effect or the level left
[3] = test system: Rattus norvegicus; assay: Antiobesity activity in obese rat assessed as reduction in body weight at 3 mg/kg, po measured on day 29; type: functional; design: scale not given: the % may be the effect or the level left
[4] = target: T1, Melanin-concentrating hormone receptor 1 (Homo sapiens, UniProt Q99705); assay: Displacement of [125I]-MCH from human MCHR1 receptor expressed in CHO-K1 cell membranes after 2 hrs by scintillation proximity assay
[5] = target: T1, Melanin-concentrating hormone receptor 1; assay: Binding affinity to MCHR1 receptor by cell-based assay

T1 sequence (Q99705 whole entry): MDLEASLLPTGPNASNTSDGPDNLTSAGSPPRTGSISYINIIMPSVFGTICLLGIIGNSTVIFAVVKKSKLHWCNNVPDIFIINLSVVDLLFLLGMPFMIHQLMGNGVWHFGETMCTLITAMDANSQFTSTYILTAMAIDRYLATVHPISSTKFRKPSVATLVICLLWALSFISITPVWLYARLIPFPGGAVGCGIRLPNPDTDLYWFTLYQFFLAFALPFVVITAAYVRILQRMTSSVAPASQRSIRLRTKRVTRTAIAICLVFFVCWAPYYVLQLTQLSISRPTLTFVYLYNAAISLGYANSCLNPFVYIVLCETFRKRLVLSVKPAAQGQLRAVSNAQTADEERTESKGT

COc1cc(-n2cnc3cc(-c4ccc(Cl)cc4)sc3c2=O)ccc1OCC1(O)CC(F)(F)C1
Ki [1]: 10 nM

COc1cc(-n2cnc3cc(-c4ccc(Cl)cc4)sc3c2=O)ccc1OC[C@H](OP(=O)(O)O)C1CC1 [BMS-830216]
Activity [2]: 7.8% | Activity [3]: 7.8%

CN(C)CC1CCc2cc(NC(=O)Nc3ccc(Oc4ccccc4)cc3)ccc2C1 (centres undefined)
IC50 [4]: 10 nM

COc1cc(-n2cnc3cc(-c4ccc(Cl)cc4)sc3c2=O)ccc1OCC1(OC(=O)CN)CC(F)(F)C1
Activity [2]: 10.2% | Activity [3]: 10.2%

COc1cc(-n2cnc3cc(-c4ccc(Cl)cc4)sc3c2=O)ccc1OC[C@H](O)C1CC1
Ki [1]: 18 nM

Cc1ccc(/C=C/C(=O)Nc2ccc3nc(N4CCN(C)CC4)cc(C)c3c2)cc1
Activity [5]: 50 nM

COc1ccc(/C=C/C(=O)Nc2ccc3nc(N4CCOCC4)cc(C)c3c2)cc1
Activity [5]: 50 nM

Source: ChEMBL document CHEMBL2146433, “Melanin concentrating hormone receptor 1 (MCHR1) antagonists-Still a viable approach for obesity treatment?” (Bioorg Med Chem Lett, 2012)
